Assay results reported in patent US11945973B2, “Ionic liquid-based coating and method of making articles coated with the same” (THE HONG KONG UNIVERSITY OF SCIENCE AND TECHNOLOGY, priority 2019, dated 2024).

Key:
E. coli = assay: Inhibition zone on agar plates; assay type: cell-based; settings: liquid applied to agar plate
Method: A bacterial suspension (0.1 ml) was spread onto tryptone soya agar plates. HEPA filters with ionic liquid coatings were cut into small pieces. They were then placed on the center of plates spread by bacteria. The plates were incubated at room temperature for 48 hours.

[1] = system: A549 lung epithelial cells
Method: A549 lung epithelial cells were grown in 25 cm^2 flasks with Dulbecco's modified Eagle's medium (DMEM) supplemented with 10% fetal bovine serum, 100 U/ml streptomycin, and 50 U/ml penicillin at 37° C. in a humidified atmosphere with 5% CO2. A subculture of confluent monolayers was carried out using 0.05% trypsin, 0.53 mmol/l ethylenediaminetetraacetic acid in calcium and magnesium-free Hanks balanced salt solution (HBSS). […] For the 3-(4,5-dimethylthiazol-2-yl)-2,5-diphenyltetrazolium bromide (MTT) assay, cells were plated in 96-well microplates at 2×10^5 cell/well for 6 hours, then the media were gently changed to remove non-adherent cells. The plates were used for assays after 24 hours. […] The media were replaced with 100 μl of dimethyl sulfoxide for 20 minutes, and the absorbances at 595 nm were determined using a microplate reader. […] The inhibition rate, I, is given by [formula] where C is the absorbance of the control group containing the cell solution and MTT, which indicates the number of maximum living cells, S is the absorbance of the sample group containing the cell solution, ionic liquids and MTT, which indicates the number of living cells in the ionic liquids, and B is the absorbance of the blank group containing only pure culture media and MTT, which is set reduce interference by the natural environment.

Row | Compound | inhibition zone for E. coli (E. coli) | cytotoxicity (inhibition rate) for A549 lung epithelial cells [1]
1 | CCO [ethanol, reference compound] | no clear inhibition zones | 
2 | CCn1cc[n+](C)c1.F[B-](F)(F)F [EMIM-BF4, 1-ethyl-3-methylimidazolium tetrafluoroborate] | obvious inhibition | lowest cytotoxicity
